6 compounds from patent US6124342A, “Pharmaceutical compositions containing pyrylium compounds, pyrylium salts and process for manufacturing a medicament containing the aforesaid compounds” (priority 1993, dated 2000) can be followed below.

Where “and” joins values, the source holds several entries; their conditions need not be identical. Equal entries are not always repeated. Where two headings read alike, the source gives them in different places.

The nature of data set [1]: Light absorption characteristics without DNA (Table 2). The data set is classed as physicochemical. An excerpt: (§1) Typical examples of compounds represented by the formula [I] which can be used as the active ingredient in a medicament for the photochemical treatment of cancer according to the present invention are shown in Table 1 below. Almost all the compound shown in Table 2 have their own absorption peaks in the region 600 nm or above, and have molar absorption coefficients as large as 5-8.5×10^4 l/mol.cm which enables more efficient use to be made of the light in photochemical treatment. Furthermore, compound 1 in Table 2 has an absorption peak in the region below 600 nm, but it has sufficiently strong absorption that it still provides better treatment efficiency at wavelength greater than 600 nm.

In data set [2] the test system is DNA. Briefly: Light absorption characteristics under existence of DNA (Table 2). The class given is physicochemical. The following applies: with DNA.
Excerpt: as §1

Data set [3] has as its system cancer cells. Briefly: Uptake by cancer cells. The data set is classed as cell-based, mice. The method, then: Four such cultures using the same medium were prepared.
The test system of data set [4] is nude mice. Description: Acute toxicity test, intravenous injection. The note with it: balanced saline solution; i.v. leg vein; 1 mg/kg; 2 nude mice. The data set is classed as in vivo. The procedure: The compound 1 (Y=I) was dissolved into a balanced saline solution and was injected into each of 2 nude mice of weight 200-400 g through a vein in the leg of the mouse. The amount of solution injected was 1 mg to 1 kg of the weight of each mouse.
The toxicity test of Example 6 was repeated except that the compound 2 was used in place of the compound 1.
The test of Example 6 was repeated except that the compound 1 (Y=I) was dissolved in dimethyl sulfoxide. The amount of solution injected was 1 mg per 1 kg of the mouse's weight. Subsequent injections on further groups of mice were carried out at 5 mg per 1 kg of the mouse's weight and 25 mg per 1 kg of the mouse's weight.
The same test as in Example 8 was carried out except that the active ingredient was compound 2 (Y=I) instead of compound 1.

Data set [5] concerns KATO III. Briefly: Photochemical treatment of KATO III tumours in nude mice. The class given is in vivo, human. The following applies: Tables 6 and 7. The procedure: (§2) Ten nude mice having weight 200-400 g were selected, and they were separated into five groups referred to as A, B, C, D and E, each containing two nude mice. Each of the mice was inocculated on its back with KATO III, which is a culture of stomach cancer cells from a human patient. The cancer cells were inocculated into the central part of the back of each mouse, after which the mice were kept for ten days. […] The mice in groups A, B and E were injected with the compound 1 (Y=I) in balanced saline solution through a vein in the leg. The amount of compound 1 which was administered to each mouse was 1 mg per 1 kg of the mouse's weight. Thereafter, the cancerous growth in each mouse in the group A and C was irradiated with white light in which the radiation of wavelength 400 nm or less and radiation of wavelength 1000 nm or above was filtered out. In group E, a part of every mouse's back was irradiated with the white light. In each case the amount of irradiation was 50J. Thereafter, the cancerous region of each mouse in the group a to D was observed and the skin of each mouse in the group E was observed.
The same test as in Example 10 was carried out except that the compound 2 was used in place of the compound 1. the results are shown in Table 7.

Data set [6] deals with skin of each mouse. Description: Irradiation of the back skin of medicated mice without tumour. The note with it: for change on irradiation of mice without tumour: group E or E'; for affinity for cancer cells versus normal cells: inferred from group E or E'. The data set is classed as in vivo, nude mice. The method, then: as §2, with “The amount of compound 1 which was administered to each mouse was 1 mg per 1 kg of the mouse's weight. Thereafter, the cancerous growth in each mouse in the group A and C was irradiated with white light in which the radiation of wavelength 400 nm or less and radiation of wavelength 1000 nm or above was filtered out.” left out

For data set [7], the system named is KATO III. Description: Deepness of necrotic tumour after irradiation. The class given is in vivo, human. The note with it: 1 mg/kg; 580 nm (half-width=20 nm); 10J; one day after irradiation. The method, then:
Four nude mice of weight 200-400 g were selected and were separated into groups X and Y, each containing two mice. Next, KATO III was inocculated into every mouse in the same way as in Example 10, after which the mice were kept for three weeks to fix the cancer cells. After three weeks the cancer in each mouse had grown and the size of the cancer was about 13 mm wide, 13 mm long and about 8 mm high. Next the mice in group X were injected via the leg with a balanced saline solution of the compound 1, and the mice of Group Y were injected with a balanced saline solution of the compound 16 via the leg. The dose of the compound 1 or 16 was adjusted to be 1 mg of the compound 1 or the compound 16 per 1 kg of the mouse's weight. Subsequently, the mice in group X were irradiated with radiation of wavelength 580 nm (half-width=20 nm) which was separated by means of a filter, and the mice in group Y were irradiated with radiation having a wavelength 720 nm (half-width=20 nm) which was separated with a filter. The amount of energy irradiated was 10J. One day after the irradiation the depth of the tumour which had become necrotic was measured.

Data set [8] deals with L-929 cells. Description: Photochemical killing of cultured cancer cells (fluorescence microscope irradiation). The following applies: for cytotoxicity at 0.25 µg/mL: read-out: percentage of cells which had died, 0.25 μg/ml; for cytotoxicity at 0.5 µg/mL: read-out: percentage of cells which had died, 0.5 μg/ml; for cell killing without irradiation: compound added, not irradiated; for cytotoxicity at 0.05 µg/mL: read-out: percentage of cells which died, 0.05 μg/ml; for cytotoxicity at 0.075 µg/mL: read-out: percentage of cells which died, 0.075 μg/ml.
Method: L-929 cells which are typical cultured cancer cells from mice were planted onto a culture medium containing E-MEM +10% FCS. The density of the cells in the medium was 10^6 cells/dish (20 ml). Thereafter, the cells were maintained at 37° C. and cultured for 36 hours. Four such cultures using the same medium were prepared. […] Then radiation of wavelength from 560-610 nm to which the compound 1 is responsive was supplied using a fluorescence microscope for the interval of time indicated in Table 3. Thereafter, each medium was cultured for 12 hours, after which the cells were observed using a microscope.
The light used to irradiate the cells at a wavelength of 600-650 nm.
The cells were irradiated with light of wavelength 700-750 nm.

The mark [9] stands for this setting: Mus musculus, L929, 12 h, 3 min, 560-610 nm, Y=I.
[10] abbreviates: Mus musculus, L929, 12 h, 5 min, 560-610 nm, Y=I.
The mark [11] stands for this setting: Mus musculus, L929, 1 min, 1 min, 600-650 nm, Y=I.
The mark [12] stands for this setting: Mus musculus, L929, 0.05 h, 3 min, 600-650 nm, Y=I.
Where [13] appears, read: Mus musculus, L929, 5 min, 5 min, 600-650 nm, Y=I.

Regarding `Cc1cc(-c2ccc(N(C)C)cc2)cc(-c2ccc(N(C)C)cc2)[o+]1` [Compound 1, 2-methyl-4,6-bis-(4-N,N-dimethylaminophenyl) pyrylium iodide], in data set [1], the “Molar absorption coefficient ε” value is 84600 L/mol/cm and the “Absorption (max) Peak Under no existence of DNA” value is given as 540 nm. The absorption peak region entry in data set [1] (Table 2) is recorded as “below 600 nm”. For the same compound, the “Absorption (max) Peak Under existence of DNA” value in data set [2] came to 580 nm. The “uptake by the cancer cells” value in data set [3] is recorded as “rapid”. Besides, the “adverse effects (acute toxicity)” value in data set [4] is recorded as “no adverse effects”. For the same compound, the “effectiveness in photochemical treatment of human cancer cells growing in live mice” value in data set [5] was “effective in the photochemical treatment of human cancer cells growing in live mice”. Further, the Change of skin result in data set [6] (Table 6, group E: 1 mg/kg i.v., irradiated 50J) is “No Change”. In addition, in data set [6], the “change on irradiation of mice without tumour” value is reported as “no change was observed” and the “affinity for cancer cells versus normal cells” value was “different from the affinity”. In addition, the “Deepness of died tumour” value in data set [7] is 4.5 mm and 4.8 mm. In addition, the “effectiveness to kill cancer cells” value in data set [8] (0.1-0.5 μg/ml, irradiation 1-5 minutes) was “effective to kill cancer cells”. The cytotoxicity at 0.1 µg/mL in data set [8] (Mus musculus, L929, 12 h, read-out: percentage of cells which had died, 0.1 μg/ml, 5 min, 560-610 nm, Y=I) was 100%. In data set [8] (setting [9]), the cytotoxicity at 0.25 µg/mL was ~100% and the cytotoxicity at 0.5 µg/mL was ~100%. Moreover, in data set [8] (setting [10]), the cytotoxicity at 0.25 µg/mL stood at 100% and the cytotoxicity at 0.5 µg/mL was determined as 100%. Besides, in data set [8] (Mus musculus, L929, 12 h, 1 min, 560-610 nm, Y=I), the cytotoxicity at 0.5 µg/mL was ~90%. For the same compound, the “cell killing without irradiation” value in data set [8] is “not killed and continued to grow in culture”.
For `Cc1cc(-c2ccc(N(C)C)cc2)cc(-c2ccc(N(C)C)cc2)[s+]1` [Compound 2, 2-methyl-4,6-bis-(4-N,N-dimethylaminophenyl)thiopyrylium iodide], the “Molar absorption coefficient ε” value in data set [1] was 49500 L/mol/cm. Further, in data set [1], the “Absorption (max) Peak Under no existence of DNA” value was determined as 580 nm. In addition, the “Absorption (max) Peak Under existence of DNA” value in data set [2] amounted to 620 nm. Besides, the “adverse effects (acute toxicity)” value in data set [4] is “no ill effects”. Besides, the “effectiveness in photochemical treatment of human cancer cells growing in live mice” value in data set [5] was “effective in the photochemical treatment of human cancer cells growing in live mice”. Further, the Change of skin entry in data set [6] (Table 7, group E': medicated, irradiated) is “No Change”. Besides, the “change on irradiation of mice without tumour” value in data set [6] was “no change was observed”. The “affinity for cancer cells versus normal cells” value in data set [6] is reported as “different from the affinity”. The cytotoxicity at 0.05 µg/mL was ~10% in data set [8] (setting [11]), 80% in data set [8] (setting [12]) and 100% in data set [8] (setting [13]). Also, the figures for the cytotoxicity at 0.075 µg/mL in data set [8] (setting [11]), in data set [8] (setting [12]) and in data set [8] (setting [13]) were 80%, 100% and 100%, respectively. The cytotoxicity at 0.1 µg/mL came out at 100% in data set [8] (Mus musculus, L929, 1 min, read-out: percentage of cells which died, 0.1 μg/ml, 1 min, 600-650 nm, Y=I); 100% in data set [8] (Mus musculus, L929, 0.05 h, read-out: percentage of cells which died, 0.1 μg/ml, 3 min, 600-650 nm, Y=I); 100% in data set [8] (Mus musculus, L929, 5 min, read-out: percentage of cells which died, 0.1 μg/ml, 5 min, 600-650 nm, Y=I). In data set [8] (Mus musculus, L929, 5 min, read-out: percentage of cells which died, 0.025 μg/ml, 5 min, 600-650 nm, Y=I), the cytotoxicity at 0.025 µg/mL was ~50%. The “cell killing without irradiation” value in data set [8] was “not killed and continued to grow in culture”. Moreover, the “killing effect compared with another compound” value in data set [8] (with irradiation) is “greater killing effect than compound 1”.
On to `CN(C)c1ccc(C=Cc2cc(-c3ccccc3)cc(-c3ccccc3)[s+]2)cc1` [Compound 8], for which the “Absorption (max) Peak Under no existence of DNA” value in data set [1] is given as 650 nm. Moreover, in data set [2], the “Absorption (max) Peak Under existence of DNA” value was determined as 610 nm.
Regarding `CN(C)c1ccc(C=CC=Cc2cc(-c3ccccc3)[o+]c(-c3ccccc3)c2)cc1` [Compound 9], the “Absorption (max) Peak Under no existence of DNA” value in data set [1] stood at 660 nm. In data set [2], the “Absorption (max) Peak Under existence of DNA” value worked out at 720 nm.
Regarding `CN(C)c1ccc(C=CC(C=Cc2ccc(N(C)C)cc2)=Cc2cc(-c3ccccc3)[o+]c(-c3ccccc3)c2)cc1` [Compound 11], the “Absorption (max) Peak Under no existence of DNA” value in data set [1] amounted to 625 nm. In addition, in data set [2], the “Absorption (max) Peak Under existence of DNA” value came to 660 nm.
With `CCN(CC)c1ccc(C=Cc2ccc(C=Cc3cc(-c4ccccc4)cc(-c4ccccc4)[o+]3)cc2)cc1` [Compound 17], the “Absorption (max) Peak Under no existence of DNA” value in data set [1] is listed as 690 nm. For the same compound, the “Absorption (max) Peak Under existence of DNA” value in data set [2] is 720 nm.
